These results are taken from US20130203598A1, “USE OF PHOTOSYNTHETIC PIGMENT STABILIZING AGENTS TO REGULATE RIPENING AND QUALITY IN FRUITS AND VEGETABLES” (WASHINGTON STATE UNIVERSITY, priority 2011, published 2013).

The test system of series [1] is d'Anjou pears. Description: Soluble sugars (% Brix) of d'Anjou pears treated on trees before harvest, after commercial controlled atmosphere storage. The conditions noted are these: application before harvest, after CA storage (FIGS. 2 and 3). The format is in vivo, d'Anjou pear (Pyrus communis). The protocol:
FIG. 2. Percent Brix of Bluestim™-treated pears after CA storage. Percent Brix were measured for all pear treatments after they were removed from the commercial CA storage conditions. FIG. 3. Fruit pressure of Bluestim™ (glycine betaine)-treated and untreated d'Anjou pears. D'Anjou pears were treated on trees with Bluestim™ concentrations of 0 and 7.5 lbs/acre before harvest. Pears were harvested during the fall and stored in commercial controlled atmosphere (CA) facilities. Pears were removed from storage approximately 3 months later. Fruit firmness and % Brix were measured approximately 1 month after removal from storage. In one embodiment, the methods of the invention are carried out before a fruit is “ripe”, i.e. before the fruit has a soluble solids content or “SSC” (which generally corresponds to sugar content) that is generally recognized in the art as suitable for a fruit of interest. […] Percent sugar content is typically measured, for example, in degrees Brix (symbol °Bx) which is the sugar content of an aqueous solution. […] Those of skill in the art will recognize that typical Brix values for fruit and vegetables to which glycine betaine is applied as described herein will vary widely depending on the type of fruit or vegetable, and will be able to readily able to determine suitable values. […]

The conditions of series [2]: use on comestible substances, consumption by humans or other animals; cited from earlier work.
For series [3], the system named is d'Anjou pears. The experiment in a line: Fruit firmness (pressure) of d'Anjou pears treated on trees before harvest, after commercial controlled atmosphere storage. The format is in vivo, d'Anjou pear (Pyrus communis). The protocol:
FIG. 1. Fruit pressure of Bluestim™ (glycine betaine)-treated and untreated d'Anjou pears. D'Anjou pears were treated on trees with Bluestim™ concentrations of 0, 2.5, 5, and 10 lbs/acre on Aug. 17, 2010. Pears were harvested on 9/20/2010 and stored in commercial controlled atmosphere (CA) facilities. Pears were removed from storage on Jan. 7, 2011.
FIG. 3. Fruit pressure of Bluestim™ (glycine betaine)-treated and untreated d'Anjou pears. D'Anjou pears were treated on trees with Bluestim™ concentrations of 0 and 7.5 lbs/acre before harvest. Pears were harvested during the fall and stored in commercial controlled atmosphere (CA) facilities. Pears were removed from storage approximately 3 months later. Fruit firmness and % Brix were measured approximately 1 month after removal from storage.
In addition, the degree of firmness and/or lack thereof may be used as an indicator of ripeness. Fruit firmness is generally measured as kg/cm^−2 and suitable ranges of firmness values for unripened and ripe fruit and vegetables are well-known to those of skill in the art. Firmness may be measured using a variety of instruments such as various fruit firmness testers, force gauges, etc.

In the case of `C[N+](C)(C)CC(=O)O` [glycine betaine, N,N,N-trimethylglycine], in series [1], the “soluble sugars measured in % BRIX” value is given as “decrease in soluble sugars measured in % BRIX in a dose dependent manner”. For the same compound, the toxicity result in series [2] is “non-toxic”. In series [3] (application before harvest, 2.5, 5, 10 or 7.5 lbs/acre, same post-harvest storage conditions (FIGS. 1 and 3)), the “fruit firmness compared to untreated pears” value was “firmer pears compared to untreated pears”. Further, in series [3] (application before harvest, 10 lbs/acre is the highest dose), the “fruit firmness, dose dependence” value is “increased the fruit firmness in a dose dependent manner, with applications of 10 lbs/acre yielding the firmest pears”. For the same compound, the “reversibility of the effect on firmness and % BRIX as time passes” value in series [3] (treated pears as time passes after treatment) was “soften and exhibit increases in % BRIX, indicating that the effect is temporary”.
